Results on 2 compounds are retold here after paper PMC5563081, “Modulating Protein-Protein Interactions of the Mitotic Polo-like Kinases to Target Mutant KRAS” (Cell Chemical Biology, 2017).

Structures are written as SMILES. Where two headings read alike, the source gives them in different places.

Common to all, as to format: cell-based
For test [1], the target named is T1, NanoLuc-PLK4 fusion protein (Homo sapiens, UniProt O00444).
T1 construct: NanoLuc fused to the N-termini of full-length human PLK1, PLK2, PLK3, PLK4 or p38α MAPK; expressed in transfected cells; host or cells: HeLa, transient, digitonin-permeabilised
T1 sequence (O00444 1-970): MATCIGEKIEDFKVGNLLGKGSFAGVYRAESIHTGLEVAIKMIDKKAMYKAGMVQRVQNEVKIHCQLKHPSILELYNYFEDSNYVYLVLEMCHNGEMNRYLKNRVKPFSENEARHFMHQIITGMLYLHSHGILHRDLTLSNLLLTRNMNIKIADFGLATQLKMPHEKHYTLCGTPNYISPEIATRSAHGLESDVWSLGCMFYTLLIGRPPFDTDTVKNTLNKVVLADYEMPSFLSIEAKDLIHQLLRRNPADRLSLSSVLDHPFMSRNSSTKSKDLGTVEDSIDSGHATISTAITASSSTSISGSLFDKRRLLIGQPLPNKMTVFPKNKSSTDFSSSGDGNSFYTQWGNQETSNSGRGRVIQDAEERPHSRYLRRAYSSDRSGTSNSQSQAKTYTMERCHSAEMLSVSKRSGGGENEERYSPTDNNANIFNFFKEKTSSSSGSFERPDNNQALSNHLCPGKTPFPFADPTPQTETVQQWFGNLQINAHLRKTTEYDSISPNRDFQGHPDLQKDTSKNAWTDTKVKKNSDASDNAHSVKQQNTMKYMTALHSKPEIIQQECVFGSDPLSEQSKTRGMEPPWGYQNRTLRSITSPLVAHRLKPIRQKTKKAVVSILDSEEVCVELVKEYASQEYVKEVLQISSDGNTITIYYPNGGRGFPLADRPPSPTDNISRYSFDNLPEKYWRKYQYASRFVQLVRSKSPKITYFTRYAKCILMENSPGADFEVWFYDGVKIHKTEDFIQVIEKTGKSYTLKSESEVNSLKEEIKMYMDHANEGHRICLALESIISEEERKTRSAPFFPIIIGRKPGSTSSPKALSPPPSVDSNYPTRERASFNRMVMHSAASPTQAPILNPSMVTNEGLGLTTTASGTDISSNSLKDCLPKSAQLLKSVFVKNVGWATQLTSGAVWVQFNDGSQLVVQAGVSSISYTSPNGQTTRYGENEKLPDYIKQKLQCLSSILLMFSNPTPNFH
Description: NanoLuc thermal shift assay. As to conditions: compound at 100 μM. How it is done:
HeLa cells were transfected with plasmids encoding NanoLuc fused to the N-termini of full-length human PLK1, PLK2, PLK3, PLK4 or p38α MAPK. Twenty-four h after transfection, the thermal stability of the fusion proteins was tested using a modified version of the assay protocol supplied by Promega. Briefly, cells were harvested by tyrpsinisation and centrifugation, counted, and resuspended to 200,000 cells/ml in 3mls of serum-free OptiMEM media. Cells were then permeabilised using with 50ug/ml digitonin in DMSO for 5 min and incubated with test compounds at 100uM, plus protease inhibitor cocktail (Promega G6521), in a final concentration of 5% DMSO for 1 h at 37°C. After incubation, 100 μl/well of cells were aliquoted into a 96-well, thin-walled PCR plate and then heated for 3 minutes using a pre-warmed MJ Tetrad DNA Engine set to run a temperature gradient of 42 to 66°C. The plates were then cooled to room temperature for 10 min, and then 80μl of each sample was transferred to a white-walled 96-well Nunc plate before NanoBRET™ NanoGlo Substrate diluted in Opti-MEM was added. NanoLuc enzyme activity was read out within 10 min using a BMG Clariostar plate reader.
Nanoluciferase enzyme activity of PLK1- or PLK4-Nanoluc fusion protein was analysed using GraphPad Prism. Data were normalised as follows: (treatment A RLU value at X°C temp/treatment A RLU value at 42°C temp) x 100. Using the Boltzmann sigmoidal equation, a curve was then fitted to the normalised data. From this non-linear fit, a V50 value was generated, which in this context represents the aggregation onset temperature (Tagg), at which 50% of the PLK1- or PLK4-Nanoluc fusion protein has aggregated.

Test [2] concerns SW48 parental (KRAS WT) cells. Description: Cell viability (SRB), SW48 parental. The settings on record: Homo sapiens. As for the experimental part:
SW48 Parental, SW48 G12D, Panc-1, HPAF-II, Panc 02.03 and Panc 05.04 cell lines were seeded overnight at 5000 cells per well in a 96 well plate in recommended media (ATCC). Compounds were added the following day and viability was measured at 72h using the sulforhodamine B (SRB) colorimetric assay as follows. Cells were fixed by replacing media with 1% v/v Trichloroacetic Acid (TCA) (Sigma-Aldrich) at 4°C and incubated for 1h also at 4°C. Wells were washed thoroughly with copious amounts of deionised water before staining with Sulforhodamine B (SRB) (Sigma-Aldrich) solution (0.057% w/v in 1% v/v Acetic Acid (VWR)) for 30 min. Stain was aspirated and wells washed with several changes of 1% v/v Acetic Acid until unbound stain was removed, before air-drying. Bound stain was solubilized with 100μl / well 10mM Tris (pH 8.0) (Trizma Base (121.1) Sigma-Aldrich) with agitation for 10 min. Fluorescence intensity was recorded at Ex540nm / Em590nm using a BMG Pherastar Plus plate reader ([Vichai and Kirtikara, 2006]).

The test system of test [3] is murine pancreatic organoids KRAS MUT p53 MUT. Description: Viability of pancreatic organoids (CellTitre Glo 3D), KRAS G12D. As to conditions: Mus musculus. As for the experimental part:
Organoid cultures were prepared from the pancreas of LSL-Trp53^R172H/+, Pdx-1-Cre (for Kras WT organoids) or LSL-Trp53^R172H/+, LSL-Kras^G12D/+, Pdx-1-Cre (for Kras^G12D organoids KPC3760 and KPC26684) strains ([Hingorani et al., 2005]). Pancreatic ducts were manually picked after tissue mincing and overnight enzymatic digestion with 0.012% (w/v) collagenase XI (Sigma) and 0.012% (w/v) dispase (GIBCO) in DMEM media containing 1% FBS (GIBCO), before seeding in growth-factor-reduced (GFR) Matrigel (BD) ([Boj et al., 2015]).
Pancreatic organoids were extracted and cultured as detailed above ([Boj et al., 2015]). In brief, pancreatic organoids were seeded at 600 cells per well in a 96 well plate and allowed to grow for 7 days with media replenishment on the 3rd day. Full-grown organoids were then treated with compounds for 72h and viability determined using CellTitre Glo 3D assay (Promega). For viability assays with c-MET siRNA, cells were reverse transfected in a 6 cm dish using Dharmafect 1 (GE Dharmacon) per manufacturer’s instructions. On the following day, cells were trypsinised and plated onto 96 well plates or 6 well plates. The 96 well plates were treated with a dose range of compounds or DMSO, and viability was determined via SRB colorimetric assay. Cells in the 6 well plates were collected at the end of experiment to corroborate knockdown of c-MET by Western blotting.

With `CN(C)CCNC(=O)c1ccc(-c2ccc(-c3ccc(Cl)cc3)n2-c2ccccc2C(F)(F)F)cc1` [Poloppin-II], the “thermal stability of NanoLuc-PLK4” value in test [1] is reported as “engages”. Moreover, the GI50 in test [2] (SW48 Parental, 72 hr, Figure 5D, read-out: GI50) came to 0.0398 ± 0.00112 µM; in test [3] (organoids KRAS MUT p53 MUT #2, n=2, read-out: Mean GI50) it was 22.9 µM.

Consider `O=C(O)CCc1ccc(-c2ccc(Br)cc2)n1-c1ccccc1C(F)(F)F` [Poloppin], for which, in test [1], the “thermal stability of NanoLuc-PLK4” value was “increases the thermal stability”. Moreover, the GI50 in test [2] (SW48) is 13.7 ± 1.03 µM; in test [3] (read-out: Mean GI50, organoids KRAS MUT p53 MUT #1, n=2), 22.9 µM; in test [3] (read-out: Mean GI50, organoids KRAS MUT p53 MUT #2, n=2), 28.4 µM.
